Test results: patent US20230086985A1, “POLYMERIC COMPOUNDS INCLUDING AN ACCEPTOR DYE AND DONOR LUMINOPHORE” (North Carolina State University, priority 2019, published 2023)
Where two headings read alike, the source gives them in different places.

Experiments:
[1] = Absorption and emission spectra of dye-loaded copolymers F1-F3 and dyes D1-D3; assay type: physicochemical
Excerpt: Measurements of Absorption and Emission Spectra. The target dye-loaded copolymers F1-F3 were then subject to investigations of their spectroscopic properties in both organic solvents and aqueous solution. […] Attaching to the 120-kDa amphiphilic copolymer drastically enhances the water solubility of BODIPY D1 and chlorin D2 without strong perturbation on the spectroscopic properties. Emission band for F1 and F2 in water remains the same as the ones measured in organic solutions, showing minimal dye-dye interaction is involved in aqueous solution of F1 and F2 at μM concentration. […] This negative result may be because of the inappropriate size of the copolymer backbone. Polymer larger in size may be required to encapsulate large hydrophobic chromophores like the phthalocyanine D3.
General Methods. All chemicals obtained commercially were used as received unless otherwise noted. Reagent-grade solvents (CH2Cl2, THF, methanol) and HPLC-grade water were used as received. NMR data was measured in a solution of CDCl3 unless otherwise noted. Noncommercial compounds 1, 2, and 4 were prepared following literature procedures. Analytical SEC experiments were performed with PLgel 10000 Å SEC column, eluted with ACS grade THF (stabilized with 400 ppm of BHT) at 35° C. with a flow rate at 1 mL/min. Samples were detected with Agilent 1260 infinity refractive index detector. Absorption spectra were measured on Agilent 8453 and Shimadzu UV1800 instruments using dilute (μmolar) solutions of the compound in UV transparent (e.g., quartz) cuvettes versus a solvent blank at room temperature.

[2] = Fluorescence quantum yield of F1-F3 and D1-D3; assay type: physicochemical
Excerpt: Fluorescence Quantum Yields. […] […] These comparisons indicate the absence of dye-dye quenching resulting from the aggregation for F1 and F2 in μM aqueous solutions. […] Also, a smaller phthalocyanine skeleton (e.g. with methyl instead of heptyl as peripheral groups) may be encapsulated with the current length of copolymer successfully.

[3] = aqueous solution, Hg(II); cited from earlier work
[4] = aqueous solution, cited from earlier work
[5] = solvent toluene, room temperature
[6] = solvent CH2Cl2, room temperature

FWHM [1, 6] [cm⁻¹]	emission maximum wavelength (λem max) [1, 6] [nm]	λabs^max [1, 6] [nm]	Φf [2, 6]	SMILES	also measured
				CCCCCCCc1cc2c(cc1CCCCCCC)-c1nc-2nc2[nH]c(nc3nc(nc4[nH]c(n1)c1cc(CCCCCCC)c(CCCCCCC)cc41)-c1cc(C#Cc4ccc(CC(=O)NN)cc4)ccc1-3)c1cc(CCCCCCC)c(CCCCCCC)cc21 [Compound D3, 2-[4-(N-Aminocarbamoyl)methylphenylethynyl]-9,10,16,17,23,24-hexaheptylphthalocyanine]	FWHM [1, 5]: 1113 cm⁻¹; emission maximum wavelength (λem max) [1, 5]: 707 nm; λabs^max [1, 5]: 702 nm; Φf [2, 5]: 0.68
342	641	640	0.19	Cc1cc(C)c(-c2c3nc(c(-c4ccc(C(=O)NN)cc4)c4ccc(cc5nc(cc6ccc2[nH]6)CC5(C)C)[nH]4)C=C3)c(C)c1 [Compound D2, 5-[4-(N-Aminocarbamoyl)phenyl]-10-Mesityl-18,18-dimethylchlorin]	
				CCN(CC)c1ccc2c(c1)Oc1cc(N(CC)CC)ccc1C21c2ccccc2C(=O)N1N [Rhodamine-B hydrazide]	change in absorption or fluorescence spectra [3]: significant change; change in absorption or fluorescence spectra ([4]; Cu(II)): significant change; Cu(II) concentration at which selective detection was highly sensitive and quantitative [4]: 10^−7 M
1628	557	543	0.065	Cc1cc(C)c(C2=C3C=CC=[N+]3[B-](F)(F)n3cc(C#CCCCCC(=O)NN)cc32)c(C)c1 [Compound D1, 2-[6-(N-Aminocarbamoyl)hex-1-yn-1-yl]-8-mesityl-4,4-difluoro-4-bora-3a,4a-diaza-s-indacene]	
